Values joined by “and” are separate entries in the source; they are usually repeats but may differ in a detail not shown here. Equal entries are not always repeated.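 These data come from cells grown in 96-well plates and exposed to compound for 48 hours at five concentrations. GI50 marks 50% less growth. TGI: concentration producing complete growth inhibition.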

Among the test systems are SN12C renal; MDA-MB-231 breast; PC-3 prostate; NCI-H522 lung; OVCAR-5 ovarian; MDA-MB-435; UACC-62 melanoma; SK-MEL-28 melanoma; HOP-92 NSCLC; ACHN renal.
What all share (experiment): DTP human tumour cell line panel, 48 h

As a reminder, the TGI is the concentration giving total growth inhibition. High values mean less potent growth arrest, low ones more potent growth arrest. As to `Cc1ccc(S(=O)(=O)N/N=C2\C3CC4CC(C3)C2C4)cc1` (configuration not stated), the TGI in the experiment with SN12C renal, in the experiment with MDA-MB-231 breast, in the experiment with PC-3 prostate, in the experiment with NCI-H522 lung, in the experiment with OVCAR-5 ovarian and with MDA-MB-435 was more than 100 µM throughout. The TGI in the experiment with UACC-62 melanoma and in the experiment with SK-MEL-28 melanoma was more than 100 µM in each case.

As to `O=C1/C(=C\c2cccc(Oc3ccccc3)c2)SC(c2ccccc2)N1c1cccc([N+](=O)[O-])c1` (configuration not stated), the TGI with HOP-92 NSCLC, in the experiment on SN12C renal, in the experiment with MDA-MB-231 breast, with ACHN renal, in the experiment on NCI-H522 lung and in the experiment with OVCAR-5 ovarian was more than 100 µM each time. Besides, the TGI in the experiment with MDA-MB-435, in the experiment with UACC-62 melanoma and in the experiment with SK-MEL-28 melanoma was more than 100 µM throughout.

Consider `O=S1(=O)OCCOS(=O)(=O)C1Cc1nc2ccccc2[nH]1`, for which the TGI was more than 100 µM in the experiment on HOP-92 NSCLC; more than 100 µM with SN12C renal; more than 100 µM with MDA-MB-231 breast; more than 100 µM in the experiment on ACHN renal; 73.4 µM with PC-3 prostate; more than 100 µM with OVCAR-5 ovarian. The TGI in the experiment with MDA-MB-435 and in the experiment with SK-MEL-28 melanoma was more than 100 µM each time.

For the compound `CC(=O)Nc1ccc(C(=O)N2N=C(C)/C(=C/c3ccc(O)cc3)C2=O)cc1`, the TGI in the experiment with SN12C renal, with ACHN renal, in the experiment on NCI-H522 lung, in the experiment with OVCAR-5 ovarian and in the experiment on SK-MEL-28 melanoma was more than 100 µM in each case.

As to `OC12CCCCCC1(N1CCOCC1)c1ccccc12` (configuration not stated), the TGI in the experiment with SN12C renal, in the experiment with ACHN renal, in the experiment with NCI-H522 lung, in the experiment on OVCAR-5 ovarian, in the experiment with UACC-62 melanoma and in the experiment on SK-MEL-28 melanoma was more than 100 µM each time.

`CC(=O)c1ccc(NC(=O)CSc2nc(C)nc3c2sc(=S)n3-c2ccccc2)cc1`: the concentration for total growth inhibition (TGI) in the experiment with HOP-92 NSCLC, in the experiment on SN12C renal, with MDA-MB-231 breast, in the experiment on ACHN renal, in the experiment on NCI-H522 lung and with OVCAR-5 ovarian was more than 3.16 µM each time. In addition, the TGI with MDA-MB-435, in the experiment with UACC-62 melanoma and in the experiment on SK-MEL-28 melanoma was more than 3.16 µM each time.

As for `c1ccc([P+](c2ccccc2)(c2ccccc2)c2ccc([P+](c3ccccc3)(c3ccccc3)c3ccccc3)cc2)cc1`, the total growth inhibition concentration (TGI) in the experiment with SN12C renal, in the experiment with MDA-MB-231 breast, in the experiment on ACHN renal, in the experiment on PC-3 prostate, in the experiment on NCI-H522 lung and in the experiment with OVCAR-5 ovarian was more than 100 µM throughout. In addition, the TGI in the experiment on MDA-MB-435, with UACC-62 melanoma and in the experiment on SK-MEL-28 melanoma was more than 100 µM each time.

Turning to `Nc1c(N=Nc2ccc(-c3ccc(N=Nc4c(O)ccc5cc(S(=O)(=O)O)cc(S(=O)(=O)O)c45)cc3)cc2)c(S(=O)(=O)O)cc2cc(S(=O)(=O)O)c(N=Nc3ccccc3)c(O)c12`, the TGI in the experiment with HOP-92 NSCLC, in the experiment on SN12C renal, in the experiment on NCI-H522 lung, in the experiment on OVCAR-5 ovarian, in the experiment with UACC-62 melanoma and in the experiment on SK-MEL-28 melanoma was more than 100 µM in each case.

For `Cc1cc2occ(-c3ccc(Cl)cc3)c2c(=O)o1`, the TGI with HOP-92 NSCLC, in the experiment on SN12C renal, with ACHN renal, in the experiment with NCI-H522 lung, in the experiment on OVCAR-5 ovarian and with UACC-62 melanoma was more than 100 µM each time. This compound came in with a TGI in the experiment on SK-MEL-28 melanoma of more than 100 µM.

In the case of `[N-]=[N+]=C(C(=O)C(=[N+]=[N-])C(=O)c1ccccc1)C(=O)c1ccccc1`, the TGI in the experiment with SN12C renal, in the experiment on MDA-MB-231 breast, with ACHN renal, with PC-3 prostate, with NCI-H522 lung and in the experiment on OVCAR-5 ovarian was more than 100 µM in each case. Moreover, the TGI in the experiment with MDA-MB-435, in the experiment on UACC-62 melanoma and with SK-MEL-28 melanoma was more than 100 µM in each case.

Consider `Cc1cc(=O)[nH]c(NNC(C#N)c2ccc([N+](=O)[O-])cc2)n1` (configuration not stated), for which the TGI with HOP-92 NSCLC, in the experiment on SN12C renal, with ACHN renal, with NCI-H522 lung, in the experiment with OVCAR-5 ovarian and with UACC-62 melanoma was more than 100 µM throughout. This compound also registered a TGI in the experiment on SK-MEL-28 melanoma of more than 100 µM.

`COc1ccc(/C=C2\CCC(CNc3ccc(Br)cc3)C2=O)cc1` (configuration not stated): the TGI in the experiment on HOP-92 NSCLC, with SN12C renal, in the experiment with MDA-MB-231 breast, in the experiment with ACHN renal, in the experiment on PC-3 prostate and in the experiment with OVCAR-5 ovarian was more than 100 µM throughout. In addition, the TGI with MDA-MB-435, with UACC-62 melanoma and in the experiment on SK-MEL-28 melanoma was more than 100 µM in each case.

Consider `COc1ccc(C2=C(OC(=O)N(C)C)c3cccn3-c3cc(Cl)ccc3S2)cc1`, for which the TGI in the experiment with HOP-92 NSCLC, in the experiment on SN12C renal, in the experiment on MDA-MB-231 breast, in the experiment on PC-3 prostate, with MDA-MB-435 and with UACC-62 melanoma was more than 10 µM in each case. This compound also yielded a TGI in the experiment on SK-MEL-28 melanoma of more than 10 µM.

Consider `CC12CC(c3ccccc3O1)C(C(=O)Nc1cccc(F)c1)C(=O)N2` (configuration not stated), for which the TGI with ACHN renal, in the experiment with PC-3 prostate, with NCI-H522 lung, in the experiment with OVCAR-5 ovarian, in the experiment with MDA-MB-435 and with UACC-62 melanoma was more than 100 µM in each case. The compound further came in with a TGI in the experiment on SK-MEL-28 melanoma of more than 100 µM.

Regarding `CCOC(=O)C1CCCCc2sc(N)c(C#N)c21` (configuration not stated), the concentration for total growth inhibition (TGI) in the experiment with HOP-92 NSCLC, in the experiment with SN12C renal, with MDA-MB-231 breast, in the experiment on ACHN renal, with PC-3 prostate and in the experiment on OVCAR-5 ovarian was more than 100 µM in each case. Also, the total growth inhibition concentration (TGI) in the experiment on UACC-62 melanoma and in the experiment with SK-MEL-28 melanoma was more than 100 µM throughout.

As usually defined, the GI50 is the concentration that inhibits growth by half. Take `CC(C)(C)CC(C)(C)c1ccc(OCCOCC[N+](C)(C)Cc2ccccc2)cc1`: the GI50 in the experiment with HOP-92 NSCLC was 0.94 µM; in the experiment with MDA-MB-231 breast, 1.34 µM; in the experiment with ACHN renal it was 6.95 µM; with OVCAR-5 ovarian it was 1.7 µM; with UACC-62 melanoma, 0.678 µM. Also, the TGI in the experiment on HOP-92 NSCLC is 2.27 µM and 4.76 µM; in the experiment on SN12C renal, 12.7 µM; in the experiment with MDA-MB-231 breast, 2.82 µM; in the experiment with ACHN renal, 32.9 µM and 26.7 µM; in the experiment on NCI-H522 lung it was 6.42 µM; in the experiment on OVCAR-5 ovarian, 3.25 µM and 19.2 µM. For the same compound, the total growth inhibition concentration (TGI) is 2.09 µM and 2.67 µM with UACC-62 melanoma; 3.68 µM with SK-MEL-28 melanoma.

Values taken from PubChem BioAssay (NCI).
